Experimental data published in PubChem BioAssay AID1963832 (Molecular Pharmacology Branch, DTP, NCI, 2024).

Test system: 885724-159-R-J1-PDC complex spheroid viability
Assay: Anticancer human tumor 885724-159-R-J1-PDC patient-derived pancreatic adenocarcinoma cell line growth inhibition [POLQ]
Conditions: for IC50: curve of first compound; for viability, T/C: stronger effect = lower value; active = viability on the fitted dose curve at most 10% of control; inactive = the rest
Summary of the method: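 PDC + HUVEC + MSC complex spheroids; POLQ inhibitors ± partner drugs; top conc. at/near clinical Cmax, else 10 microM (SN-38 1 microM), half-log dilutions; 37 degrees C, 5% CO2.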

[1] = second compound 0.0316 µM, first compound 0.00316 µM
[2] = second compound 0.0316 µM, first compound 0.01 µM
[3] = second compound 0.0316 µM, first compound 0.0316 µM
[4] = second compound 0.0316 µM, first compound 0.1 µM
[5] = second compound 0.1 µM, first compound 0.00316 µM
[6] = second compound 0.1 µM, first compound 0.01 µM
[7] = second compound 0.1 µM, first compound 0.0316 µM
[8] = second compound 0.1 µM, first compound 0.1 µM
[9] = second compound 0.316 µM, first compound 0.00316 µM
[10] = second compound 0.316 µM, first compound 0.01 µM
[11] = second compound 0.316 µM, first compound 0.0316 µM
[12] = second compound 0.316 µM, first compound 0.1 µM
[13] = second compound 1 µM, first compound 0.00316 µM
[14] = second compound 1 µM, first compound 0.01 µM
[15] = second compound 1 µM, first compound 0.0316 µM
[16] = second compound 1 µM, first compound 0.1 µM
[17] = second compound 3.16 µM, first compound 0.00316 µM
[18] = second compound 3.16 µM, first compound 0.01 µM
[19] = second compound 3.16 µM, first compound 0.0316 µM
[20] = second compound 3.16 µM, first compound 0.1 µM
[21] = second compound 10 µM, first compound 0.00316 µM
[22] = second compound 10 µM, first compound 0.01 µM
[23] = second compound 10 µM, first compound 0.0316 µM
[24] = second compound 10 µM, first compound 0.1 µM
[25] = second compound 0.0316 µM, first compound 0.316 µM
[26] = second compound 0.0316 µM, first compound 1 µM
[27] = second compound 0.1 µM, first compound 0.316 µM
[28] = second compound 0.1 µM, first compound 1 µM
[29] = second compound 0.316 µM, first compound 0.316 µM
[30] = second compound 0.316 µM, first compound 1 µM
[31] = second compound 1 µM, first compound 0.316 µM
[32] = second compound 1 µM, first compound 1 µM
[33] = second compound 3.16 µM, first compound 0.316 µM
[34] = second compound 3.16 µM, first compound 1 µM
[35] = second compound 10 µM, first compound 0.316 µM
[36] = second compound 10 µM, first compound 1 µM
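Also: spheroids exposed to compounds for 7 days.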

CC[C@@]1(O)C(=O)OCc2c1cc1n(c2=O)Cc2cc3c(CN(C)C)c(O)ccc3nc2-1 + Cc1cccc(N(C)C(=O)C2C(O)CCN2c2nc(C)cc(C(F)(F)F)c2C#N)c1
inactive: viability, T/C (second compound 0.0316 µM, first compound 0.000316 µM) 112% | viability, T/C (second compound 0.0316 µM, first compound 0.001 µM) 103% | viability, T/C [1] 98% | viability, T/C [2] 93.5% | viability, T/C [3] 72% | viability, T/C [4] 65.5% | viability, T/C (second compound 0.1 µM, first compound 0.000316 µM) 111% | viability, T/C (second compound 0.1 µM, first compound 0.001 µM) 112% | viability, T/C [5] 93.4% | viability, T/C [6] 93% | viability, T/C [7] 73.2% | viability, T/C [8] 68.1% | viability, T/C (second compound 0.316 µM, first compound 0.000316 µM) 117% | viability, T/C (second compound 0.316 µM, first compound 0.001 µM) 104% | viability, T/C [9] 103% | viability, T/C [10] 100% | viability, T/C [11] 74.9% | viability, T/C [12] 62.4% | viability, T/C (second compound 1 µM, first compound 0.000316 µM) 100% | viability, T/C (second compound 1 µM, first compound 0.001 µM) 98% | viability, T/C [13] 99.5% | viability, T/C [14] 94.2% | viability, T/C [15] 81.8% | viability, T/C [16] 61.7% | viability, T/C (second compound 3.16 µM, first compound 0.000316 µM) 108% | viability, T/C (second compound 3.16 µM, first compound 0.001 µM) 99.3% | viability, T/C [17] 98.8% | viability, T/C [18] 101% | viability, T/C [19] 71.6% | viability, T/C [20] 55.3% | viability, T/C (second compound 10 µM, first compound 0.000316 µM) 99.9% | viability, T/C (second compound 10 µM, first compound 0.001 µM) 95.3% | viability, T/C [21] 90.5% | viability, T/C [22] 87.6% | viability, T/C [23] 83% | viability, T/C [24] 63.6%
> 100 nM: IC50 (second compound 0.0316 µM) | IC50 (second compound 0.1 µM) | IC50 (second compound 0.316 µM) | IC50 (second compound 1 µM) | IC50 (second compound 3.16 µM) | IC50 (second compound 10 µM)

CCc1c2c(nc3ccc(O)cc13)-c1cc3c(c(=O)n1C2)COC(=O)[C@]3(O)CC + Cc1cccc(N(C)C(=O)C2C(O)CCN2c2nc(C)cc(C(F)(F)F)c2C#N)c1
75.2 nM: IC50 (second compound 0.316 µM)
56.8 nM: IC50 (second compound 10 µM)
53 nM: IC50 (second compound 3.16 µM)
66.8 nM: IC50 (second compound 0.1 µM)
58.8 nM: IC50 (second compound 1 µM)
96.3 nM: IC50 (second compound 0.0316 µM)
active: viability, T/C [26] 5.13% | viability, T/C [28] 4.47% | viability, T/C [30] 4.66% | viability, T/C [32] 4.77% | viability, T/C [34] 4.41% | viability, T/C [36] 4.59%
inactive: viability, T/C [1] 80.9% | viability, T/C [2] 53.6% | viability, T/C [3] 53.3% | viability, T/C [4] 52.6% | viability, T/C [25] 39.9% | viability, T/C [5] 80.6% | viability, T/C [6] 64.4% | viability, T/C [7] 50.5% | viability, T/C [8] 49.4% | viability, T/C [27] 35.3% | viability, T/C [9] 82.7% | viability, T/C [10] 68.3% | viability, T/C [11] 55.5% | viability, T/C [12] 47.4% | viability, T/C [29] 34.5% | viability, T/C [13] 79.6% | viability, T/C [14] 65.8% | viability, T/C [15] 51.8% | viability, T/C [16] 46.8% | viability, T/C [31] 34.5% | viability, T/C [17] 98% | viability, T/C [18] 62.3% | viability, T/C [19] 51.7% | viability, T/C [20] 50.7% | viability, T/C [33] 28.6% | viability, T/C [21] 80.2% | viability, T/C [22] 64.9% | viability, T/C [23] 52.2% | viability, T/C [24] 46.4% | viability, T/C [35] 30.1%

COc1cc(C2c3cc4c(cc3C(OC3OC5COC(C)OC5C(O)C3O)C3COC(=O)C23)OCO4)cc(OC)c1O (stereo unspecified) + Cc1cccc(N(C)C(=O)C2C(O)CCN2c2nc(C)cc(C(F)(F)F)c2C#N)c1
9090 nM: IC50 (second compound 0.316 µM)
9110 nM: IC50 (second compound 0.1 µM)
inactive: viability, T/C [3] 101% | viability, T/C [4] 90.2% | viability, T/C [25] 80.7% | viability, T/C [26] 75% | viability, T/C (second compound 0.0316 µM, first compound 3.16 µM) 57.7% | viability, T/C (second compound 0.0316 µM, first compound 10 µM) 48.1% | viability, T/C [7] 94.7% | viability, T/C [8] 86.1% | viability, T/C [27] 79.5% | viability, T/C [28] 73.4% | viability, T/C (second compound 0.1 µM, first compound 3.16 µM) 63.2% | viability, T/C (second compound 0.1 µM, first compound 10 µM) 47.5% | viability, T/C [11] 95.4% | viability, T/C [12] 99.8% | viability, T/C [29] 74.6% | viability, T/C [30] 71% | viability, T/C (second compound 0.316 µM, first compound 3.16 µM) 58.2% | viability, T/C (second compound 0.316 µM, first compound 10 µM) 48.4% | viability, T/C [15] 100% | viability, T/C [16] 79.3% | viability, T/C [31] 74% | viability, T/C [32] 71% | viability, T/C (second compound 1 µM, first compound 3.16 µM) 55.7% | viability, T/C (second compound 1 µM, first compound 10 µM) 45.4% | viability, T/C [19] 98.1% | viability, T/C [20] 96.9% | viability, T/C [33] 76.2% | viability, T/C [34] 67.3% | viability, T/C (second compound 3.16 µM, first compound 3.16 µM) 58.6% | viability, T/C (second compound 3.16 µM, first compound 10 µM) 45.9% | viability, T/C [23] 95.9% | viability, T/C [24] 80% | viability, T/C [35] 74.9% | viability, T/C [36] 62.6% | viability, T/C (second compound 10 µM, first compound 3.16 µM) 58.2% | viability, T/C (second compound 10 µM, first compound 10 µM) 44.2%
8120 nM: IC50 (second compound 0.0316 µM)
6050 nM: IC50 (second compound 10 µM)
6860 nM: IC50 (second compound 1 µM) | IC50 (second compound 3.16 µM)
